{"source": "paper PMC12722920", "about": "“Pharmacokinetics and pharmacodynamics of cannabigerol (CBG) in the C57BL/6Crl mouse” (Frontiers in Pharmacology, 2025)", "key": {"[1]": {"test_system": "C57BL/6Crl mice", "experiment": "Cannabinoid tetrad: internal body temperature (rectal thermometer)", "assay_type": "in vivo", "details": "for ED50: Mus musculus, iv"}, "[2]": {"test_system": "C57BL/6Crl mice", "experiment": "Cannabinoid tetrad: nociception by tail-flick latency", "assay_type": "in vivo", "details": "for ED50: Mus musculus, iv"}, "[3]": {"test_system": "male mice", "set-up": "method as in Zagzoog et al., 2020", "details": "i.p., 15 min post-injection; ref Zagzoog et al., 2020; cited from earlier work"}, "[4]": {"set-up": "method as in Newmeyer et al., 2016", "details": "ref Newmeyer et al., 2016, cited from earlier work"}, "[5]": {"test_system": "male Sprague Dawley rats", "set-up": "method as in Jenkins et al., 2023", "details": "acute oral 100 mg/kg, 30 min post-administration; ref Jenkins et al., 2023; cited from earlier work"}, "[6]": {"experiment": "Phase II blood concentration 10 min after i.v. administration (HPLC-MS/MS)"}, "[7]": {"test_system": "CB1R", "set-up": "method as in earlier work", "details": "ref El-Alfy et al., 2010; Navarro et al., 2018; Zagzoog et al., 2020; cited from earlier work"}, "[8]": {"set-up": "method as in Deiana et al., 2012", "details": "ref Deiana et al., 2012, cited from earlier work"}, "[9]": {"test_system": "CD-1 mice", "set-up": "method as in Schwarz et al., 2024", "details": "100 mg/kg i.p., not at 10 or 320 mg/kg, ref Schwarz et al., 2024, cited from earlier work"}, "[10]": {"details": "1, 3, 10 or 30 mg/kg i.v., male and female mice"}}, "note": "Like-named read-outs stand apart in the source and are kept apart here."}
{"smiles": "CCCCCc1cc(O)c(C/C=C(\\C)CCC=C(C)C)c(O)c1", "note": "[CBG, cannabigerol]", "values": [{"measurement": "body temperature vs vehicle", "setting": "[1]; 10 mg/kg i.p. or p.o., male mice, 15 min post-injection", "value": "significant increase in temperature"}, {"measurement": "body temperature vs vehicle", "setting": "[1]; 10 mg/kg, all routes (i.v. 15 min, i.p. 25 min, p.o. 175 min), male and female mice", "value": "decreased body temperature compared to vehicle"}, {"measurement": "hypothermia, dose-response", "setting": "[1]; [10]", "value": "produced a modest effect but only at the highest dose tested, 30 mg/kg"}, {"measurement": "ED50", "setting": "[1]; 0.25 h, both sexes, 15 min post-administration", "value": "> 30", "unit": "mg/kg"}, {"measurement": "ED50", "setting": "[1]; males", "value": "> 30", "unit": "mg/kg"}, {"measurement": "effect on body temperature, dose-response", "setting": "[1]; i.v., Phase II", "value": "did not alter body temperature"}, {"measurement": "anti-nociceptive response in tail-flick vs vehicle", "setting": "[2]; 10 mg/kg i.v., 20 min post-administration, male and female mice", "value": "produced an anti-nociceptive response"}, {"measurement": "tail-flick latency", "setting": "[2]; 10 mg/kg i.v., i.p. and p.o., male mice, 20 min post-injection", "value": "did not alter tail-flick latency"}, {"measurement": "anti-nociception, dose-response", "setting": "[2]; [10]", "value": "produced a modest effect but only at the highest dose tested, 30 mg/kg"}, {"measurement": "anti-nociceptive effect (tail-flick)", "setting": "[2]; CBG given i.p.", "value": "10% ± 0.83%"}, {"measurement": "ED50", "setting": "[2]; 20 min, i.v., both sexes, 20 min post-administration, read-out: ED50 tail-flick latency", "value": "> 30", "unit": "mg/kg"}, {"measurement": "ED50", "setting": "[2]; both sexes, read-out: ED50 tail-flick latency, estimate exceeding the dose range (square brackets)", "value": "> 30", "unit": "mg/kg"}, {"measurement": "ED50", "setting": "[2]; males, read-out: ED50 tail-flick latency", "value": "> 30", "unit": "mg/kg"}, {"measurement": "intoxication relative to THC, anti-nociception", "setting": "[2]; accounting for blood concentrations measured at 10 min, i.v.", "value": 3.6, "unit": "%"}, {"measurement": "Intoxication ratio, tail-flick latency", "setting": "[2]; both sexes", "value": 0.036}, {"measurement": "Intoxication ratio, tail-flick latency", "setting": "[2]; females", "value": 0.038}, {"measurement": "ED50 tail-flick latency", "setting": "[2]; i.v., females", "value": "> 30", "unit": "mg/kg"}, {"measurement": "anti-nociceptive effect", "setting": "[3]", "value": "evoked an anti-nociceptive effect"}, {"measurement": "detection in blood after oral cannabis", "setting": "[4]; cannabis administered orally", "value": "not detected"}, {"measurement": "time CBG was detected after smoking", "setting": "[4]; frequent cannabis smokers", "value": "up to 17 min"}, {"measurement": "time CBG was detected following vaporization", "setting": "[4]; frequent cannabis smokers", "value": "up to 13 min"}, {"measurement": "anxiolytic effects", "setting": "[5]", "value": "did not produce anxiolytic effects"}, {"measurement": "mean blood concentration of CBG relative to THC", "setting": "[6]; 10 mg/kg i.v., higher than THC", "value": "approximately 5 times"}, {"measurement": "concentration at 10 min", "setting": "[6]; both, C57BL/6Crl, mouse, whole blood, intravenous, 10 mg/kg", "value": 2700, "unit": "ng/mL"}, {"measurement": "CB1R affinity relative to THC", "setting": "[7]", "value": "approximately one-twentieth"}, {"measurement": "time to peak plasma concentration (Tmax)", "setting": "[8]; i.p.", "value": 2, "unit": "h"}, {"measurement": "time to peak plasma concentration (Tmax)", "setting": "[8]; p.o.", "value": 0.5, "unit": "h"}, {"measurement": "anti-nociception", "setting": "[9]; 20 min post-injection", "value": "anti-nociception"}, {"measurement": "hypothermia", "setting": "[9]; 30 min post-injection", "value": "resulted in hypothermia"}]}
